In PubChem BioAssay AID248 (DTP/NCI, 2004):
“And” between values parts separate entries of the source, which are not always exact repeats. Equal values may be shown once. Toxic doses and inconclusive results are not listed. Cut-off read from the data, not from the text of the source: active = T/C of 150% or more; inactive = T/C below 125%.

System: L1210 leukemia ip in BDF1 mice, survival T/C
Assay: NCI In Vivo Anticancer Drug Screen. Data for tumor model L1210 Leukemia (intraperitoneal) in B6D2F1 (BDF1) mice
Details: endpoint: mean survival time, higher = longer survival
How it was run: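 Read-out is survival time, reported as the treated-group measurement over the vehicle-control measurement.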

[1] = dose: 100.0 mg/kg/injection, schedule: Q04DX003 (ip), vehicle: saline
[2] = dose: 200.0 mg/kg/injection, schedule: Q04DX003 (ip), vehicle: saline
[3] = dose: 400.0 mg/kg/injection, schedule: Q04DX003 (ip), vehicle: saline
[4] = dose: 25.0 mg/kg/injection, schedule: Q01DX009 (ip), vehicle: saline with Tween-80
[5] = dose: 50.0 mg/kg/injection, schedule: Q01DX009 (ip), vehicle: saline with Tween-80
[6] = dose: 100.0 mg/kg/injection, schedule: Q01DX009 (ip), vehicle: saline with Tween-80
[7] = dose: 200.0 mg/kg/injection, schedule: Q01DX009 (ip), vehicle: saline with Tween-80
[8] = dose: 100.0 mg/kg/injection, schedule: Q01DX001 (ip), vehicle: saline
[9] = dose: 200.0 mg/kg/injection, schedule: Q01DX001 (ip), vehicle: saline
[10] = dose: 400.0 mg/kg/injection, schedule: Q01DX001 (ip), vehicle: saline
[11] = dose: 50.0 mg/kg/injection, schedule: Q01DX001 (ip), vehicle: saline
[12] = dose: 100.0 mg/kg/injection, schedule: Q04DX002 (ip), vehicle: Klucel (hydroxypropylcellulose) (HPC)
[13] = dose: 200.0 mg/kg/injection, schedule: Q04DX002 (ip), vehicle: Klucel (hydroxypropylcellulose) (HPC)
[14] = dose: 400.0 mg/kg/injection, schedule: Q04DX002 (ip), vehicle: saline with Tween-80

Measured: T/C

COC1=C(F)C(=O)C(OC)=C(F)C1=O
inactive: dose: 1.2 mg/kg/injection, schedule: Q01DX001 (ip), vehicle: alcohol 101 % of control | dose: 2.5 mg/kg/injection, schedule: Q01DX001 (ip), vehicle: alcohol 97 % of control | dose: 5.0 mg/kg/injection, schedule: Q01DX001 (ip), vehicle: alcohol 103 % of control

O=C(c1ccc(Br)cc1)C(O)O
inactive: dose: 100.0 mg/kg/injection, schedule: Q01DX009 (ip), vehicle: saline 102 % of control | [1] 121 % of control | dose: 200.0 mg/kg/injection, schedule: Q01DX009 (ip), vehicle: saline 97 % of control | [2] 101 % of control | dose: 400.0 mg/kg/injection, schedule: Q01DX009 (ip), vehicle: saline 102 % of control | [3] 106 % of control

Cc1cccc2cc3cccc[n+]3cc12
inactive: dose: 1.56 mg/kg/injection, schedule: Q04DX003 (ip), vehicle: saline 101 % of control | dose: 3.12 mg/kg/injection, schedule: Q01DX009 (ip), vehicle: saline 96 % of control | dose: 3.12 mg/kg/injection, schedule: Q04DX003 (ip), vehicle: saline 93 % of control | dose: 6.25 mg/kg/injection, schedule: Q01DX009 (ip), vehicle: saline 96 % of control | dose: 6.25 mg/kg/injection, schedule: Q04DX003 (ip), vehicle: saline 97 % of control | dose: 12.5 mg/kg/injection, schedule: Q04DX003 (ip), vehicle: saline 100 % of control

Clc1nc(Cl)c(Cl)nc1Cl
inactive: [4] 102 % of control | [5] 100 % of control | [6] 100 % of control | [7] 110 % of control | dose: 400.0 mg/kg/injection, schedule: Q01DX009 (ip), vehicle: saline with Tween-80 96 % of control

CCOc1ccc2[nH]c(C)c(CC(=O)O)c2c1
inactive: dose: 100.0 mg/kg/injection, schedule: Q01DX001 (ip), vehicle: saline with Tween-80 97 % of control | dose: 200.0 mg/kg/injection, schedule: Q01DX001 (ip), vehicle: saline with Tween-80 103 % of control | dose: 400.0 mg/kg/injection, schedule: Q01DX001 (ip), vehicle: saline with Tween-80 97 % of control

Cc1oc2ccc(NS(=O)(=O)c3ccccc3)cc2c1C(=O)O
inactive: [4] 101 % of control | [5] 107 % of control | [6] 101 % of control

CC(C)C(C(=O)O)C(=O)O
inactive: [8] 102 % of control | [9] 104 % of control | [10] 112 % of control

O=C(N/N=C\C=C\c1ccccc1)c1ccc(Cl)cc1
inactive: [5] 93 % of control | [6] 89 % of control | [7] 86 % of control

Nc1nc(N)nc(Nc2ccc([As]=O)cc2)n1 (configuration not stated)
inactive: dose: 25.0 mg/kg/injection, schedule: Q01DX009 (ip), vehicle: Klucel (hydroxypropylcellulose) (HPC) 112 % of control | dose: 50.0 mg/kg/injection, schedule: Q01DX009 (ip), vehicle: Klucel (hydroxypropylcellulose) (HPC) 117 % of control | dose: 100.0 mg/kg/injection, schedule: Q01DX009 (ip), vehicle: Klucel (hydroxypropylcellulose) (HPC) 102 % of control

COS(=O)(=O)CCCCCC[N+](C)(C)C
inactive: [11] 93 % of control | [8] 102 % of control | [9] 98 % of control

CC(C)N(CCC#N)C(=S)Nc1cccc(C(F)(F)F)c1
inactive: dose: 100.0 mg/kg/injection, schedule: Q01DX009 (ip), vehicle: other 102 % of control | dose: 200.0 mg/kg/injection, schedule: Q01DX009 (ip), vehicle: other 104 % of control | dose: 400.0 mg/kg/injection, schedule: Q01DX009 (ip), vehicle: other 103 % of control

CC(C)N(CCO)CCO
inactive: [1] 100 % of control | [2] 102 % of control | [3] 100 % of control

O=C(CC1C=CCC1)NCc1ccccc1 (configuration not stated)
inactive: dose: 75.0 mg/kg/injection, schedule: Q01DX001 (ip), vehicle: saline 101 % of control | dose: 150.0 mg/kg/injection, schedule: Q01DX001 (ip), vehicle: saline 95 % of control | dose: 300.0 mg/kg/injection, schedule: Q01DX001 (ip), vehicle: saline 93 % of control

O=C(O)COc1c(Cl)cc(Cl)cc1Cl
inactive: [12] 100 % of control | [13] 100 % of control | dose: 400.0 mg/kg/injection, schedule: Q04DX002 (ip), vehicle: Klucel (hydroxypropylcellulose) (HPC) 96 % of control

CC(C)(C)c1cc(C=C2C(=O)c3ccccc3C2=O)cc(C(C)(C)C)c1O
inactive: dose: 100.0 mg/kg/injection, schedule: Q04DX002 (ip), vehicle: saline with Tween-80 87 % of control | dose: 200.0 mg/kg/injection, schedule: Q04DX002 (ip), vehicle: saline with Tween-80 90 % of control | [14] 93 % of control

C=C(C)Cc1c(C)c(Cl)cc(Cl)c1O
inactive: [11] 103 % of control | [8] 103 % of control

CCOC(=O)C1CC(C(=O)OCC)c2nc3ccccc3nc21 (configuration not stated)
inactive: dose: 50.0 mg/kg/injection, schedule: Q01DX001 (ip), vehicle: other 88 % of control | dose: 100.0 mg/kg/injection, schedule: Q01DX001 (ip), vehicle: other 92 % of control and 86 % of control | dose: 200.0 mg/kg/injection, schedule: Q01DX001 (ip), vehicle: other 89 % of control | dose: 400.0 mg/kg/injection, schedule: Q01DX001 (ip), vehicle: other 92 % of control

CC(C)(C)c1cc(O)c(O)c(C(C)(C)C)c1
inactive: dose: 25.0 mg/kg/injection, schedule: Q04DX003 (ip), vehicle: other 104 % of control | dose: 50.0 mg/kg/injection, schedule: Q04DX003 (ip), vehicle: other 104 % of control | dose: 100.0 mg/kg/injection, schedule: Q04DX003 (ip), vehicle: other 105 % of control

O=C(Nc1ncc(S(=O)(=O)c2ccc([N+](=O)[O-])cc2)s1)C(F)(F)F
inactive: [6] 94 % of control | [7] 99 % of control

COc1nc(N)c(C#N)c(C#N)c1C#N
inactive: dose: 15.0 mg/kg/injection, schedule: Q01DX001 (ip), vehicle: carboxymethylcellulose (CMC) 95 % of control | dose: 30.0 mg/kg/injection, schedule: Q01DX001 (ip), vehicle: carboxymethylcellulose (CMC) 95 % of control

Cc1cccc(C)c1Oc1ccc([N+](=O)[O-])cc1[N+](=O)[O-]
inactive: dose: 100.0 mg/kg/injection, schedule: Q01DX001 (ip), vehicle: Klucel (hydroxypropylcellulose) (HPC) 105 % of control | dose: 200.0 mg/kg/injection, schedule: Q01DX001 (ip), vehicle: Klucel (hydroxypropylcellulose) (HPC) 112 % of control | dose: 400.0 mg/kg/injection, schedule: Q01DX001 (ip), vehicle: Klucel (hydroxypropylcellulose) (HPC) 117 % of control

O=C(CBr)c1ccncc1
inactive: dose: 5.0 mg/kg/injection, schedule: Q01DX001 (ip), vehicle: saline 103 % of control | dose: 10.0 mg/kg/injection, schedule: Q01DX001 (ip), vehicle: saline 103 % of control | dose: 20.0 mg/kg/injection, schedule: Q01DX001 (ip), vehicle: saline 94 % of control

CC(=O)Nc1cc(CN2CCCCC2)c(O)c2ncccc12
inactive: dose: 75.0 mg/kg/injection, schedule: Q01DX001 (ip), vehicle: other 120 % of control | dose: 150.0 mg/kg/injection, schedule: Q01DX001 (ip), vehicle: other 105 % of control | dose: 300.0 mg/kg/injection, schedule: Q01DX001 (ip), vehicle: other 107 % of control

O=[N+]([O-])c1cc([N+](=O)[O-])c2ccc(Cl)nc2c1O
inactive: [8] 98 % of control | [9] 98 % of control | [10] 96 % of control

CCCCCC(Oc1ccc(Cl)cc1C)C(=O)O (configuration not stated)
inactive: [12] 107 % of control | [13] 107 % of control

O=C(NCCCCC(NC(=O)OCc1ccccc1)C(=O)NCCCCCCCCCCNC(=O)C(CCCCNC(=O)OCc1ccccc1)NC(=O)OCc1ccccc1)OCc1ccccc1 (configuration not stated)
inactive: dose: 10.0 mg/kg/injection, schedule: Q01DX012 (ip), vehicle: saline 94 % of control | dose: 30.0 mg/kg/injection, schedule: Q01DX012 (ip), vehicle: saline 96 % of control | dose: 100.0 mg/kg/injection, schedule: Q01DX012 (ip), vehicle: saline 94 % of control | dose: 300.0 mg/kg/injection, schedule: Q01DX012 (ip), vehicle: saline 88 % of control

CCOc1ccc(C(=O)CCN2CCOCC2)cc1
inactive: [8] 100 % of control | [9] 118 % of control

CP1(=S)CCC(O)(c2ccccc2)CC1 (configuration not stated)
inactive: [14] 88 % of control
